According to patent US12491233B2, “Pharmaceutical composition, for preventing or treating Charcot-Marie-Tooth disorder, comprising mesenchymal stem cells or insulin secreted by mesenchymal stem cells” (SAMSUNG LIFE PUBLIC WELFARE FOUNDATION, priority 2020, dated 2025):

Legend:
[1] = tested on: ERK and Akt pathways; test: Western blot of P-ERK1/2, ERK1/2, P-AKT, AKT in insulin-treated Schwann cells; format: cell-based; conditions: 100 nM insulin, 24 hours
Protocol: After the cultured Schwann cells were treated with 100 nM insulin protein, the cells were harvested after 24 hours, and then the pellets were added in RIPA buffer, and the cells were disrupted using a sonicator and then centrifuged at 13,000 rpm at 4° C. for 15 minutes. Only the supernatant was subjected to protein quantification, and then 30 μg of proteins was loaded onto SDS-PAGE gel. Thereafter, the gel loaded on PVDF was transferred and then blocked with 5% skim milk for 1 hour, and then P-ERK1/2, ERK1/2, P-AKT, AKT, and β-actin antibodies were attached thereto at 4° C. for 24 hours. After the HRP-linked secondary antibody reaction and the washing process were performed, the bands of proteins were checked by using ECL solution.

[2] = tested on: MPZ; test: MPZ in sciatic nerve tissue by confocal microscope; format: in vivo, mice; conditions: 12 U/kg intravenously, after two weeks, WT = 1, sham 0.20
Excerpt: 5-Week-old Charcot-Marie-Tooth disease mice were intravenously administered with 12 U/kg insulin, and after two weeks, the sciatic nerve tissue was collected and observed through a confocal microscope in Example 7, and the results are shown in FIG. 8D and Table 14.

[3] = tested on: Charcot-Marie-Tooth disease mice; test: MRI of gastrocnemius muscle tissue, cross-sectional area and volume; format: in vivo; conditions: 12 U/kg intravenously, after two weeks; for CSA: MRI; for Volume: from cross-sectional area
Protocol: 5-Week-old Charcot-Marie-Tooth disease mice were intravenously administered with 12 U/kg insulin and, after two weeks, the gastrocnemius muscle tissue was observed by the MRI system. In addition, the cross-sectional area of the muscle tissue was measured to obtain the volume of the muscle tissue, and the results are shown in FIG. 9E and Table 18.

[4] = tested on: MPZ; test: MPZ expression level in sciatic nerve tissue by western blotting; format: in vivo, mice; conditions: 12 U/kg intravenously, after two weeks, WT = 100, sham 3.84
Protocol: 5-Week-old Charcot-Marie-Tooth disease mice were intravenously administered with 12 U/kg insulin, and after two weeks, the sciatic nerve tissue was collected and then the MPZ expression level was determined using MPZ antibody by the same method as in protein expression analysis through western blotting in Example 3, and the results are shown in FIGS. 8F and 8G and Table 15.

[5] = tested on: Charcot-Marie-Tooth disease mice; test: Myelination of sciatic nerve tissue by transmission electron microscope; format: in vivo
Excerpt: 5-Week-old Charcot-Marie-Tooth disease mice were intravenously administered with 12 U/kg insulin, and after two weeks, the sciatic nerve tissue was collected and observed by the same method as in the histological analysis through a transmission electron microscope in Example 7, and the results are shown in FIGS. 8A to 8C and Tables 12 and 13.

[6] = tested on: Charcot-Marie-Tooth disease mice; test: Grip strength testing in Charcot-Marie-Tooth disease mice; format: in vivo; conditions: 5-week-old CMT mice, 12 U/kg intravenously, after two weeks; WT 8.9, sham 6.2
Excerpt: 5-Week-old Charcot-Marie-Tooth disease mice were intravenously administered with 12 U/kg insulin and, after two weeks, examined for behavioral performance increase through grip strength testing as in Example 5.

[7] = tested on: Dystrophin; test: Myogenesis of gastrocnemius muscle tissue, dystrophin fluorescent antibody; format: in vivo, mice
Protocol: 5-Week-old Charcot-Marie-Tooth disease mice were intravenously administered with 12 U/kg insulin, and after two weeks, the gastrocnemius muscle tissue was collected. Then, the increase in myogenesis was measured using the dystrophin antibody by the same method as in protein expression analysis using a fluorescent antibody in Example 7, and the results are shown in FIGS. 9A and 9B and Table 16.

[8] = tested on: PMP22; test: PMP22 gene expression in sciatic nerve tissue by qRT-PCR; format: in vivo, mice
Protocol: In addition, it was examined using qRT-PCR analysis whether specific genes observable in each type of differentiated cells were expressed in differentiated adipocytes and chondrocytes. Non-differentiated cells and differentiated cells were harvested and the total RNA was extracted from the cell pellets using TRIZOL. The pellets were completely dissolved in 1 mL of TRIZOL, and then 0.2 mL of chloroform was added thereto, followed by shaking for 15 seconds and then standing at room temperature for 3 minutes. The resultant product was then separated into the bottom layer phenol-chloroform, the intermediate layer, and the upper layer colorless aqueous solution by centrifugation at 13,000 rpm and 4° C. for 15 minutes, and of these, only the upper layer colorless aqueous solution was separately collected and transferred into a new tube. After 0.5 mL of isopropyl alcohol was added to the tube and then vigorously mixed, the mixture was left at room temperature for 5 minutes. The resultant solution was again centrifuged at 13,000 rpm and 4° C. for 10 minutes, and the supernatant was discarded. Thereafter, 75% ethanol was added to pellets and again vigorously mixed, followed by centrifugation. The upper layer was discarded, and RNA pellets were dried for 5-10 minutes and dissolved in RNase-free water. […]

[9] = tested on: Schwann cells; test: ATP measurement, CellTiter-Glo Luminescent Cell Viability Assay; format: cell-based; conditions: relative to 0 nM = 1
Protocol: (§1) The cultured Schwann cells were treated with insulin at 0, 1, 10, 50, 100, 200, 500, or 1000 nM, and then the degree of cell proliferation was determined by measurement of the absorbance at 450 nm using a spectrophotometer by using the CCK-8 (Dojindo) test method. ATP was measured using the CellTiter-Glo Luminescent Cell Viability Assay (Promega Corporation), and finally, 5-bromo-2′-deoxyuridine (BrdU) bound during DNA synthesis in cells was identified. In this test method, analysis was performed using Cell Proliferation ELISA, BrdU (colorimetric) (Roche). BrdU was added to the cells, followed by incubation for 24 hours, and then the cells were fixed, followed by DNA denaturation, and then treated with Anti-BrdU antibody. The cells were incubated with TMB substrate by using HRP-linked secondary antibody, and the absorbance at 370 nm was measured in a spectrophotometer.

[10] = tested on: Schwann cells; test: CCK-8 cell proliferation of insulin-treated Schwann cells; format: cell-based; conditions: for CCK-8: relative to 0 nM = 1
Protocol: as §1

[11] = tested on: Schwann cells; test: BrdU Cell Proliferation ELISA (colorimetric); format: cell-based; conditions: relative to 0 nM = 1
Protocol: as §1

[12] = tested on: Charcot-Marie-Tooth disease mice; test: Rotarod testing in Charcot-Marie-Tooth disease mice; format: in vivo
Excerpt: 5-Week-old Charcot-Marie-Tooth disease mice were intravenously administered with 12 U/kg insulin and, after two weeks, examined for behavioral performance increase through rotarod testing as in Example 5.

insulin
activation of proliferation potency of Schwann cells through ERK and Akt pathways [1]: activated the proliferation potency of Schwann cells through ERK and Akt pathways | MPZ [2]: 0.69 | CSA ([3]; Left gastrocnemius muscle, sham 0.302): 0.343 | Volume ([3]; Left gastrocnemius muscle, sham 2.533): 2.879 | CSA ([3]; Right gastrocnemius muscle, sham 0.290): 0.323 | Volume ([3]; Right gastrocnemius muscle, sham 2.438): 2.712 | MPZ [4]: 44.12 | myelination ([5]; in words, FIGS. 8A to 8G): increased myelination | myelination ([5]; sciatic nerve, TEM, 12 U/kg intravenously, after two weeks, WT = 100, sham 13.59): 82.99 | Thickness ([5]; thickness of myelination, sciatic nerve, TEM, 12 U/kg intravenously, after two weeks, WT 3.32, sham 0.67): 2.53 | Grip Strength [6]: 7.7 | Dystrophin ([7]; gastrocnemius muscle, 12 U/kg intravenously, after two weeks, WT = 1, sham 0.27): 0.94 | myogenesis ([7]; in words, FIGS. 9A to 9E): increased myogenesis | PMP22 expression levels ([8]; in words): reduced the PMP22 expression levels | PMP22 ([8]; sciatic nerve, 12 U/kg intravenously, after two weeks, WT = 1, sham 1305.36): 986.69 | ATP ([9]; insulin 1 nM): 1.08 | ATP ([9]; insulin 10 nM): 1.13 | ATP ([9]; insulin 50 nM): 1.20 | ATP ([9]; insulin 100 nM): 1.23 | ATP ([9]; insulin 200 nM): 1.18 | ATP ([9]; insulin 500 nM): 1.22 | ATP ([9]; insulin 1000 nM): 1.06 | optimum concentration for increasing the proliferation capacity of Schwann cells ([10]; from CCK-8, ATP and BrdU tests, 0-1000 nM): 100 nM | CCK-8 ([10]; insulin 1 nM): 1.03 | CCK-8 ([10]; insulin 10 nM): 1.09 | CCK-8 ([10]; insulin 50 nM): 1.16 | CCK-8 ([10]; insulin 100 nM): 1.18 | CCK-8 ([10]; insulin 200 nM): 1.19 | CCK-8 ([10]; insulin 500 nM): 1.21 | CCK-8 ([10]; insulin 1000 nM): 1.21 | BrdU ([11]; insulin 1 nM): 1.13 | BrdU ([11]; insulin 10 nM): 1.32 | BrdU ([11]; insulin 50 nM): 1.39 | BrdU ([11]; insulin 100 nM): 1.51 | BrdU ([11]; insulin 200 nM): 1.50 | BrdU ([11]; insulin 500 nM): 1.36 | BrdU ([11]; insulin 1000 nM): 1.44 | Rotarod ([12]; 5-week-old CMT mice, 12 U/kg intravenously, after two weeks, WT 112.3, sham 27.8): 67.9 | behavioral performance of the mice ([12]; rotarod and grip strength, in words): increased the behavioral performance
